In ChEMBL document CHEMBL1158172, “Preparation and antibacterial activity of cyclic 2',3'-carbamate derivatives of azithromycin” (Eur J Med Chem, 2008):
Calls of active or inactive are those of the source. The rule behind the calls is not given here.

Legend:
Escherichia coli = assay: Antibacterial activity against Escherichia coli ATCC 25922; format: functional, organism-based
Staphylococcus aureus = assay: Antibacterial activity against Staphylococcus aureus ATCC 25923; format: functional, organism-based

Row | Structure (SMILES) | Activity (Escherichia coli) | Activity (Staphylococcus aureus)
1 | CC[C@H]1OC(=O)[C@H](C)[C@@H](O[C@H]2C[C@@](C)(OC)[C@@H](O)[C@H](C)O2)[C@H](C)[C@@H](O[C@@H]2O[C@H](C)C[C@H]3[C@H]2OC(=O)N3C)[C@](C)(O)C[C@@H](C)CN[C@H](C)[C@@H]2OC(=O)O[C@]12C | inactive | inactive
2 | CC[C@H]1OC(=O)[C@H](C)[C@@H](O[C@H]2C[C@@](C)(OC)[C@@H](O)[C@H](C)O2)[C@H](C)[C@@H](O[C@@H]2O[C@H](C)C[C@H]3[C@H]2OC(=O)N3C)[C@](C)(O)C[C@@H](C)CN(C)[C@H](C)[C@@H]2OC(=O)O[C@]12C | inactive | inactive
